Measured values published in paper PMC12090182, “Repurposing of the RIPK1-Selective Benzo[1,4]oxazepin-4-one Scaffold for the Development of a Type III LIMK1/2 Inhibitor” (ACS Chemical Biology, 2025).

Legend:
Format in all cases: cell-based
Conditions in all cases: HEK-293T; 1 μM inhibitor, HEK293T cells
[1] = target: AURKA (Homo sapiens, UniProt O14965)
How it was run: (§1)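 Using transiently transfected HEK293T cells, the inhibitor (1 μM) is tested for displacing Tracer K10 from each expressed kinase after 20 h expression. Luminescence at donor and acceptor wavelengths yields occupancy.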

[2] = target: CAMK1 (Homo sapiens, UniProt Q14012)
How it was run: as §1

[3] = target: CDK14 (Homo sapiens, UniProt O94921)
How it was run: as §1

[4] = target: CDK20 (Homo sapiens, UniProt Q8IZL9)
How it was run: as §1

[5] = target: CDK5 (Homo sapiens, UniProt Q00535)
How it was run: as §1

[6] = target: CDK6 (Homo sapiens, UniProt Q00534)
How it was run: as §1

[7] = target: CDKL3 (Homo sapiens, UniProt Q8IVW4)
How it was run: as §1

[8] = target: EPHA7 (Homo sapiens, UniProt Q15375)
How it was run: as §1

[9] = target: EPHB4 (Homo sapiens, UniProt P54760)
How it was run: as §1

[10] = target: ICK (Homo sapiens, UniProt Q9UPZ9)
How it was run: as §1

[11] = target: IKBKE (Homo sapiens, UniProt Q14164)
How it was run: as §1

[12] = target: INSR (Homo sapiens, UniProt P06213)
How it was run: as §1

[13] = target: LCK (Homo sapiens, UniProt P06239)
How it was run: as §1

[14] = target: MAP4K1 (Homo sapiens, UniProt Q92918)
How it was run: as §1

[15] = target: MAPK14 (Homo sapiens, UniProt Q16539)
How it was run: as §1

[16] = target: MAPK4 (Homo sapiens, UniProt P31152)
How it was run: as §1

[17] = target: MAPK9 (Homo sapiens, UniProt P45984)
How it was run: as §1

[18] = target: MUSK (Homo sapiens, UniProt O15146)
How it was run: as §1

[19] = target: PLK2 (Homo sapiens, UniProt Q9NYY3)
How it was run: as §1

[20] = target: PRKAA1 (Homo sapiens, UniProt Q13131)
How it was run: as §1

[21] = target: PRKAA2 (Homo sapiens, UniProt P54646)
How it was run: as §1

[22] = target: PRKCE (Homo sapiens, UniProt Q02156)
How it was run: as §1

[23] = target: PRKX (Homo sapiens, UniProt P51817)
How it was run: as §1

[24] = target: T1, RIPK1 (Homo sapiens, UniProt Q13546)
T1 construct: full-length LIMK1/2, RIPK1, BTK, and LRRK2 cloned in a frame in a NanoLuc-vector (Promega); host or cells: HEK293T
T1 sequence (Q13546 1-671): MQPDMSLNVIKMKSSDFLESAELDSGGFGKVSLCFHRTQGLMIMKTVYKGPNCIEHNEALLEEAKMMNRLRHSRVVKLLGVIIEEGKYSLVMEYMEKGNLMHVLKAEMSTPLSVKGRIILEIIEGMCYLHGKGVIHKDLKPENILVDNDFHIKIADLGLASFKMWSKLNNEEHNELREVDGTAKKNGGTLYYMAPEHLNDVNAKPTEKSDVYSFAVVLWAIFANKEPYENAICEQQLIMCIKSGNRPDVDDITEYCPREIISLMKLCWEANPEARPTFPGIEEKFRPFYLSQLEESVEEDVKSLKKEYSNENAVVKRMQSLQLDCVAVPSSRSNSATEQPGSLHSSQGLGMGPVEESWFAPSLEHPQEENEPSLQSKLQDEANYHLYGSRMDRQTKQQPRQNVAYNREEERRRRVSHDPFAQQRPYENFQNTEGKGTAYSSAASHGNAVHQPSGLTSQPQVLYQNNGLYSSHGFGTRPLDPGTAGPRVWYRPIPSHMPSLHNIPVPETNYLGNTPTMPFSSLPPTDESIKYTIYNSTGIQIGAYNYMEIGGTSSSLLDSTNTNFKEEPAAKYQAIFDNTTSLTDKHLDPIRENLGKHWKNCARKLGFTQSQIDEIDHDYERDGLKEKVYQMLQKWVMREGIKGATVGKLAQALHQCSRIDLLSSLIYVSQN
How it was run: as §1

[25] = target: SNF1LK2 (Homo sapiens, UniProt Q9H0K1)
How it was run: as §1

[26] = target: STK3 (Homo sapiens, UniProt Q13188)
How it was run: as §1

[27] = target: ULK3 (Homo sapiens, UniProt Q6PHR2)
How it was run: as §1

Chain of PRKCE (Q02156 whole entry): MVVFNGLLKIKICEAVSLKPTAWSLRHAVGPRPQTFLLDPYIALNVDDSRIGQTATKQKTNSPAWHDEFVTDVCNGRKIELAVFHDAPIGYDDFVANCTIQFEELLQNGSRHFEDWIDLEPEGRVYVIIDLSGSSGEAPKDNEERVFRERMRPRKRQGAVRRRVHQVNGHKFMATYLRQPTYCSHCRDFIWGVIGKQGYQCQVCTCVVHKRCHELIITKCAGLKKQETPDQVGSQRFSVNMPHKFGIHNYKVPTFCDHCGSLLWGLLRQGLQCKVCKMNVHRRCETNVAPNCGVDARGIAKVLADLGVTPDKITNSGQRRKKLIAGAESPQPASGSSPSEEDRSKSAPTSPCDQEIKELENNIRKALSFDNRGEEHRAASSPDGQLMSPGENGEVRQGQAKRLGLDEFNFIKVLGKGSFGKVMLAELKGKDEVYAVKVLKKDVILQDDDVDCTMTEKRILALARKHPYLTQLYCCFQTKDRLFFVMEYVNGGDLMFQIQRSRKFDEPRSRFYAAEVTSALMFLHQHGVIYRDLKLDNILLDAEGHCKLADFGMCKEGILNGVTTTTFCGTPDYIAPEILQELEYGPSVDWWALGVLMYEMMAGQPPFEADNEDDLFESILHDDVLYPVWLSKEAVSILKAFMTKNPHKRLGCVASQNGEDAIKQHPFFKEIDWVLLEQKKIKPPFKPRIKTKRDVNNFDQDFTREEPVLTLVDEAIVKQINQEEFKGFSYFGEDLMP
Chain of MUSK (O15146 24-869): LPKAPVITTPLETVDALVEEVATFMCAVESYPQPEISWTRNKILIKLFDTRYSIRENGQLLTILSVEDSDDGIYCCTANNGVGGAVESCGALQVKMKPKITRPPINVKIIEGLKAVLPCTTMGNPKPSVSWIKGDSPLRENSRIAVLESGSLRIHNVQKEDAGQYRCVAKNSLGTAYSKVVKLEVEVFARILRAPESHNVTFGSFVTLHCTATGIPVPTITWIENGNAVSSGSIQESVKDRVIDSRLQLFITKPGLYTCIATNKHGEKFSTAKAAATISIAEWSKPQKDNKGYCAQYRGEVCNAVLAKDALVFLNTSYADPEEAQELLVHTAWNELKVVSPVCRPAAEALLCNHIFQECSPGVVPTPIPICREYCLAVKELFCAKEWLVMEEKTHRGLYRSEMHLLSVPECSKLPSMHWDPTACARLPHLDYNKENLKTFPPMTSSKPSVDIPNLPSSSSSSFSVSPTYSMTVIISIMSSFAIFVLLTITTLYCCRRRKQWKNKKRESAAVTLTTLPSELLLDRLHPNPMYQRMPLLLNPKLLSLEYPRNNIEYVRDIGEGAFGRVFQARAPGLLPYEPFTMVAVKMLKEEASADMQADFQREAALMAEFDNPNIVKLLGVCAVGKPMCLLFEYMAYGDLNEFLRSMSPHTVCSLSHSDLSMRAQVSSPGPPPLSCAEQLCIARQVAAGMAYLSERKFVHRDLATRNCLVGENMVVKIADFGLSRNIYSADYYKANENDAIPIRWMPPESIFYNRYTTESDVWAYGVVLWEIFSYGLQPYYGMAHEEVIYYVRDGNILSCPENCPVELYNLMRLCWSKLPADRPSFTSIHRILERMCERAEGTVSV
Chain of EPHB4 (P54760 16-987): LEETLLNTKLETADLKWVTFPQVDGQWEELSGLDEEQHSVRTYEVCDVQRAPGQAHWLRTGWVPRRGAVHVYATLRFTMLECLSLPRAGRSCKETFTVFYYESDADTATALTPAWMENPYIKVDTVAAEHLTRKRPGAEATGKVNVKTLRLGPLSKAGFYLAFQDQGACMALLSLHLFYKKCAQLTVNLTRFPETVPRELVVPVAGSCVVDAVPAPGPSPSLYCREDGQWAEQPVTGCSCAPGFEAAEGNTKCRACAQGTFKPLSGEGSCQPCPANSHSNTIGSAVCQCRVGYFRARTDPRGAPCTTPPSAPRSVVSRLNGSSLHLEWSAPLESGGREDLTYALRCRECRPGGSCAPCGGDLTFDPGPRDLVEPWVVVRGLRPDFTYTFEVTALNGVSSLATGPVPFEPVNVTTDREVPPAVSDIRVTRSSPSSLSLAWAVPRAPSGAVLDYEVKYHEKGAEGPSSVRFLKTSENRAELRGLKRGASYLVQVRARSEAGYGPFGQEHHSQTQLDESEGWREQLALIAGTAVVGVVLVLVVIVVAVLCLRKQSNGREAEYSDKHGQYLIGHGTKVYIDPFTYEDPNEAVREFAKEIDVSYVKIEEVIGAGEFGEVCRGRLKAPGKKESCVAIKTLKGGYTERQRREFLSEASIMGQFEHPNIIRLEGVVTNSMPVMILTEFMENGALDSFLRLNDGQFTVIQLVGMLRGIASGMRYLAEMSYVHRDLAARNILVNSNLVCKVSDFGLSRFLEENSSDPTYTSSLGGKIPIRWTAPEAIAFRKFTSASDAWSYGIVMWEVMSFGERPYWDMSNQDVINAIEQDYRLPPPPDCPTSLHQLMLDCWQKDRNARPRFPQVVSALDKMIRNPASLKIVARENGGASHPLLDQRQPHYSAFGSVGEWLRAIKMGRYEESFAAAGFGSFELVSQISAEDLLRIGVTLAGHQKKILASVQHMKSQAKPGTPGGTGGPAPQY
Chain of PRKX (P51817 whole entry): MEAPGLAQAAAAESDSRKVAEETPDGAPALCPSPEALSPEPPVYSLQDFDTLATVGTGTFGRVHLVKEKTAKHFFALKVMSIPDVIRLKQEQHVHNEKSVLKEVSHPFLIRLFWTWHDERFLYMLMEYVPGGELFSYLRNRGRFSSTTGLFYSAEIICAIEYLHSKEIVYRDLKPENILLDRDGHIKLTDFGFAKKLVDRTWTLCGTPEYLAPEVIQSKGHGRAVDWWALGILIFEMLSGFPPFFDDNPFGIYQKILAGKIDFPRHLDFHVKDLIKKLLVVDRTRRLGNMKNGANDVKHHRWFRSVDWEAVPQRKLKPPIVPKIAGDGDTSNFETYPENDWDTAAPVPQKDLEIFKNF
Chain of CDKL3 (Q8IVW4 whole entry): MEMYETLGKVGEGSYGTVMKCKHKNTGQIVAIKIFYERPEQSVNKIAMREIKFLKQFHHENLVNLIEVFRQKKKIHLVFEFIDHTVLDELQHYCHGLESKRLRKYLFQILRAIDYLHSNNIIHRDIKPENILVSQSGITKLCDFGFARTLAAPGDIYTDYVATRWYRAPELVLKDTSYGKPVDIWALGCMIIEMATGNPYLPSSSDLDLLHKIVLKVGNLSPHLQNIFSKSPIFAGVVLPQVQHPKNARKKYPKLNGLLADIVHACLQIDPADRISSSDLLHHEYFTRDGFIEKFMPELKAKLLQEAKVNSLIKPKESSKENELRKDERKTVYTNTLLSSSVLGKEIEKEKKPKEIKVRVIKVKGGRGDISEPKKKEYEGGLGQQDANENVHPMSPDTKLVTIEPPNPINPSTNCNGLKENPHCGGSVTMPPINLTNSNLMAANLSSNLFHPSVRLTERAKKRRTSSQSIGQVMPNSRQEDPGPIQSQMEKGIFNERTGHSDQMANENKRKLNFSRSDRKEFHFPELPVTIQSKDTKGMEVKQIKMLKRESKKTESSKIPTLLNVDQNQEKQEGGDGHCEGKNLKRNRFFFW
Chain of AURKA (O14965 whole entry): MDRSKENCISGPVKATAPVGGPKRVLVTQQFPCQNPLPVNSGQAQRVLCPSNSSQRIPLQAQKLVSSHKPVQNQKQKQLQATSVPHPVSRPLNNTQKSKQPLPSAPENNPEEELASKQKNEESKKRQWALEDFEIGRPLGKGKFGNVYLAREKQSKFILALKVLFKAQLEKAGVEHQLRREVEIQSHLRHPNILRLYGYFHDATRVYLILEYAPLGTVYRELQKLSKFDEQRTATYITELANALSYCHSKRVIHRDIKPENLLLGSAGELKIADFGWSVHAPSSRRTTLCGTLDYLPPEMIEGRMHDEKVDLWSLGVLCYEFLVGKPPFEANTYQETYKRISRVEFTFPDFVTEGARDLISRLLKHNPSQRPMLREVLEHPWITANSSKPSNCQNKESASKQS
Chain of MAPK9 (P45984 whole entry): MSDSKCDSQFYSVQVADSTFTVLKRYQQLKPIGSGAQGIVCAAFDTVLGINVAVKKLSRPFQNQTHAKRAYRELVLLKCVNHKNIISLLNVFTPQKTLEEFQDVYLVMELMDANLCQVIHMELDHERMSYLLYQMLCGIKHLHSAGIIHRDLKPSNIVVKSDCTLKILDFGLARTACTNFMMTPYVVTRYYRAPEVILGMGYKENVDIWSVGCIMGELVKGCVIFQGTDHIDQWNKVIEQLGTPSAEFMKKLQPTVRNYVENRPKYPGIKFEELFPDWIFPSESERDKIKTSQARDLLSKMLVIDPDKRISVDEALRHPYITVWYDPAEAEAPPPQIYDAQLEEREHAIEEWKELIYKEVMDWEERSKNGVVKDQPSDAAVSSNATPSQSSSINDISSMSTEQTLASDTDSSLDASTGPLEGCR
Chain of MAPK14 (Q16539 whole entry): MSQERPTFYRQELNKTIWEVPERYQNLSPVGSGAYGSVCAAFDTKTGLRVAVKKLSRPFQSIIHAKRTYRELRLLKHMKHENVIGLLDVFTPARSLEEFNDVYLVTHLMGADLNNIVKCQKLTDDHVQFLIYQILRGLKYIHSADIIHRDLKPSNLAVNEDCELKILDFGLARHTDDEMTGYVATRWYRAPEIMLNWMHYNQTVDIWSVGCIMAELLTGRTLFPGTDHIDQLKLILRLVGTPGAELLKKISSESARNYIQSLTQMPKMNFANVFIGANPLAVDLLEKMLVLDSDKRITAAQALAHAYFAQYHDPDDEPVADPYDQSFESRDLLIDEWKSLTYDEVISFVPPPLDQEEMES

Compound `CN1C(=O)[C@@H](N2CCc3c(nn(Cc4ccccc4)c3C(N)=O)C2=O)COc2cc(Cl)ccc21` [Compound 10, (S)-2-benzyl-6-(8-chloro-5-methyl-4-oxo-2,3,4,5-tetrahydrobenzo[b][1,4]oxazepin-3-yl)-7-oxo-4,5,6,7-tetrahydro-2H-pyrazolo[3,4-c]pyridine-3-carboxamide] has a receptor occupancy at 1 µM [1] of -7.12%, a receptor occupancy at 1 µM [2] of 2.97% and a receptor occupancy at 1 µM [3] of 4.07%. It also gave a receptor occupancy at 1 µM [4] of 0.735%, a receptor occupancy at 1 µM [5] of -9.43% and a receptor occupancy at 1 µM [6] of -16.9%. For the same compound, the receptor occupancy at 1 µM [7] was 4.18%, the receptor occupancy at 1 µM [8] was -2.24% and the receptor occupancy at 1 µM [9] was 4.16%. It also gave a receptor occupancy at 1 µM [10] of 3.76%, a receptor occupancy at 1 µM [11] of 6.88% and a receptor occupancy at 1 µM [12] of 4.94%. It also gave a receptor occupancy at 1 µM [13] of -0.25%, a receptor occupancy at 1 µM [14] of 3.49% and a receptor occupancy at 1 µM [15] of 4.38%. The receptor occupancy at 1 µM [16] was -10.7%, the receptor occupancy at 1 µM [17] was -2.07% and the receptor occupancy at 1 µM [18] was -11.5%. For the same compound, the receptor occupancy at 1 µM [19] was 2.74%, the receptor occupancy at 1 µM [20] was -3.79% and the receptor occupancy at 1 µM [21] was 2.71%. For the same compound, the receptor occupancy at 1 µM [22] was 3.9%, the receptor occupancy at 1 µM [23] was 2.51% and the receptor occupancy at 1 µM [24] was 78.4%. For the same compound, the receptor occupancy at 1 µM [25] was 4.84%, the receptor occupancy at 1 µM [26] was -10.1% and the receptor occupancy at 1 µM [27] was 1.52%.
